Laboratory results: patent US20170046476A1, “SYSTEMS, APPARATUS, AND METHODS FOR ANALYZING AND PREDICTING CELLULAR PATHWAYS” (priority 2015, published 2017)

Tested on: STHdh Q111 cells
Experiment: Multiparameter high content imaging for the analysis of cell apoptosis (calcein-AM / propidium iodide / Hoechst)
Format: cell-based, mouse
Settings: for apoptosis / percentage of dead cells (propidium iodide-positive cells): STHdh Q111 cells treated with FTY720-P vs untreated (vehicle), 24 hours, serum-free medium, P-value=7.98×10^−5, two-sided student t-test, two independent experiments, twenty replicates each
Text: FIG. 16B is a bar plot comparing percentages of dead cells in STHdh Q111 cells not treated with an analogue of S1P (FTY720-P) to STHdh Q111 cells treated with FTY720-P in accordance with some embodiments. […] In contrast, this approach inferred the underlying network of sphingolipid dysregulation and the role of S1P in diseased cells without any prior assumptions.
FIG. 17 is a series of images illustrating cell viability, morphology, and shape in accordance with some embodiments. Images 1702, 1704, and 1706 show STHdh Q7 cells, STHdh Q111 cells, and STHdh Q111 cells treated with FTY720-P, respectively, following treatment with calcein to detect viable cells and monitor changes in cell shape and morphology. Images 1708, 1710, and 1712 show STHdh Q7 cells, STHdh Q111 cells, and STHdh Q111 cells treated with FTY720-P, respectively, following treatment with propidium iodide, which stains late apoptotic cells with damaged membranes. As shown, hidden components inferred by using the described approach rescue diseased cells.
According to some embodiments, STHdhQ7/Q7 and STHdhQ111/Q111 striatal cells were trypsinized, harvested in pre-warmed growth medium and quantified using an automated cell counter (available from, e.g., Countess II, Life Technologies). Six thousand cells per well were seeded in sterile, black 96-well microplates with flat, clear bottom. After 24 hours, the complete medium was removed and replaced with phenol red- and serum-free medium containing either FTY720 phosphate (available from Sigma-Aldrich) or vehicle (e.g., DMSO, available from Sigma-Aldrich) and cells were incubated for 24 hours at 33° C. A multiple staining solution containing 1 μg/ml calcein-AM, 2 μg/ml propidium iodide and 1.5 μg/ml […] (all available from Life Technologies) was added to detect and quantify live, dead, and total cells, respectively. After 20 minutes in incubation, a Cellomics Arrayscan Platform (available from Thermo Scientific) was used for imaging acquisition. […] Cell loss was expressed as the percentage of propidium iodide-positive cells. […]

## FTY720 phosphate [FTY720-P]
  apoptosis / percentage of dead cells (propidium iodide-positive cells): significantly decreasing apoptosis
Listed as Phosphorylated FTY720
  apoptosis / percentage of dead cells (propidium iodide-positive cells): significantly decrease apoptosis
STHdh cell line model of Huntington's disease, summary statement
  effect of treating diseased cells (neuroprotection): neuroprotective effects
